Data on 66 compounds can be found in patent publication US8110681B2, “Compounds for the treatment of spinal muscular atrophy and other uses” (The United States of America as represented by the …, priority 2006, dated 2012).

Where two headings read alike, the source gives them in different places.

The assay relates to SMN2-linked luciferase-reporter gene construct. In words: SMN splice reporter assay (SMN2-linked luciferase reporter, Example 10). Type of assay: cell-based. The note with it: for maximal fold induction: read-out: SMN Splice Reporter Assay (Example 10) Avg MaxFold Increase. An outline of the steps:
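Values are fold-increase in luciferase signal relative to baseline cells without compound. The cervical carcinoma line used holds a fusion of alternatively spliced SMN2 sequence and luciferase. Readable frame, and thus signal, arises only with exon 7-including splicing.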
On the technique in general: A reporter such as luciferase makes a cellular process visible.

[1] abbreviates: SMN2-linked luciferase reporter, average.
Where [2] appears, read: maximum fold increase of reporter signal, average.
The mark [3] stands for this setting: SMN2-linked luciferase reporter, average maximum fold increase.

By EC50 is commonly meant the concentration needed to bring the measured effect to its halfway point. Low values mean higher potency in that assay, high ones lower potency in that assay. `C=Cc1ccc2c(c1)C(=O)N(c1ccc(C(C)C)cc1)C2` [ALB-115714] gave a 50% effective concentration (EC50) under setting [1] of 53 nM. Further, the maximal fold induction under setting [2] was determined as 1.37.
Take `CC(C)c1ccc(N2Cc3ccc(N4CCCC4)cc3C2=O)cc1` [ALB-115715]: under setting [2], the maximal fold induction was 1.06.
In turn, `CC(C(=O)O)c1ccc(N2Cc3ccc(C4CC4)cc3C2=O)cc1` (stereo not shown) [ALB-115716] yielded a concentration for a half-maximal effect (EC50) under setting [1] of 29 nM. Further, under setting [2], the maximal fold induction came to 1.59.
As for `Cc1ccc2c(c1)C(=O)N(c1ccc(C3CCCCC3)cc1)C2` [ALB-115717], the maximal fold induction under setting [2] was determined as 1.06.
In the case of `O=C1c2cc(Br)ccc2CN1c1ccc(C2CC2)cc1` [ALB-115718], a half-maximal response under setting [1] (EC50) required 22 nM. Also, the maximal fold induction under setting [2] stood at 1.32.
For the compound `CC(C)c1ccc(N2Cc3cccc(Br)c3C2=O)cc1` [ALB-115801], the EC50 under setting [1] worked out at 144 nM. Also, the maximal fold induction under setting [2] worked out at 1.45.
The compound `O=C1c2ccccc2CN1c1ccc(C2CC2)cc1` [ALB-115802] displayed an EC50 under setting [1] of 61 nM. The maximal fold induction under setting [3] amounted to 1.28.
In the same order, the values of `COc1ccc2c(c1)C(=O)N(c1ccc(C3CC3)cc1)C2` [ALB-115803] are 15 nM and 1.26.
The compound `CC(C)c1ccc(N2Cc3ccc(N)cc3C2=O)cc1` [ALB-115805] had a 50% effective concentration (EC50) under setting [1] of 99 nM. In addition, under setting [2], the maximal fold induction turned out to be 1.42.
On to `CC(C)=Cc1ccc2c(c1)C(=O)N(c1ccc(C(C)C)cc1)C2` [ALB-115807], for which, under setting [1], the EC50 was determined as 155 nM. Moreover, under setting [3], the maximal fold induction came to 1.3.
Compound `CC(C)c1ccc(N2Cc3cc(Br)ccc3C2=O)cc1` [ALB-115810] came in with a half-maximal effective concentration (EC50) under setting [1] of 145 nM. Further, the maximal fold induction under setting [2] was 1.44.
Turning to `CC(C)c1ccc(N2Cc3c(Br)cccc3C2=O)cc1` [ALB-115811], under setting [2], the maximal fold induction amounted to 1.16.
Compound `Cc1cccc2c1CN(c1ccc(C(C)C)cc1)C2=O` [ALB-115947] had a concentration giving a half-maximal response (EC50) under setting [1] of 114 nM. In addition, under setting [2], the maximal fold induction was 1.39.
The compound `Cc1ccc2c(c1)C(=O)N(c1ccc(C3CC3)cc1)C2` [ALB-115949] had a concentration for a half-maximal effect (EC50) under setting [1] of 6 nM. Further, the maximal fold induction under setting [3] is 1.37.
Take `COCC(C)c1ccc(N2Cc3ccc(CC(C)C)cc3C2=O)cc1` (stereo not shown) [ALB-115976]: a half-maximal response under setting [1] (EC50) required 179 nM. Moreover, the maximal fold induction under setting [2] is 1.29.
Consider `COCc1ccc(N2Cc3ccc(OC)cc3C2=O)cc1` [ALB-116067], for which the maximal fold induction under setting [2] is 1.24.
Consider `Cc1ccc2c(c1)C(=O)N(c1ccc(C(C)(C)C)cc1)C2` [ALB-116068], for which, under setting [1], a half-maximal response (EC50) required 51 nM. In addition, under setting [2], the maximal fold induction stood at 1.35.
In the same order, the values of `CCCc1ccc(N2Cc3ccc(C)cc3C2=O)cc1` [ALB-116071] are 16 nM and 1.35.
Compound `O=C1c2cc(Br)ccc2CN1c1ccc(C2CCCC2)cc1` [ALB-116072] came in with an EC50 under setting [1] of 68 nM. Besides, the maximal fold induction under setting [3] turned out to be 1.36.
With `Cc1ccc2c(c1)C(=O)N(c1ccc(C3CCCC3)cc1)C2` [ALB-116073], the maximal fold induction under setting [3] amounted to 1.08.
`CCCOc1ccc2c(c1)C(=O)N(c1ccc(C(C)C)cc1)C2` [ALB-116075] displayed an EC50 under setting [1] of 188 nM. For the same compound, the maximal fold induction under setting [2] was 1.26.
In the same order, the values of `CC(C)Oc1ccc2c(c1)C(=O)N(c1ccc(C(C)C)cc1)C2` [ALB-116076] are 72 nM and 1.35.
With `CC(C)c1ccc(N2Cc3ccc(OC4CCCC4)cc3C2=O)cc1` [ALB-116077], the maximal fold induction under setting [2] turned out to be 1.18.
Regarding `CCc1ccc(N2Cc3cc4c(cc3C2=O)OCCO4)cc1` [ALB-116240], a half-maximal effect under setting [1] (EC50) was put at 33 nM. In addition, under setting [3], the maximal fold induction turned out to be 1.62.
`CC(C)Cc1ccc2c(c1)C(=O)N(c1ccc(C(C)C)cc1)C2` [ALB-116245]: the concentration giving a half-maximal response (EC50) under setting [1] turned out to be 219 nM. Also, the maximal fold induction under setting [2] worked out at 1.36.
For `Cc1ccc(N2Cc3cc4c(cc3C2=O)OCCO4)cc1` [ALB-116363], under setting [1], the EC50 is 24 nM. The maximal fold induction under setting [3] was 1.54.
On to `CC(C)c1ccc(N2Cc3ccc(N4CCOCC4)cc3C2=O)cc1` [ALB-116368], for which, under setting [2], the maximal fold induction turned out to be 1.08.
As for `O=C1c2cc3c(cc2CN1c1ccc(C2CCCCC2)cc1)OCCO3` [ALB-116417], the maximal fold induction under setting [3] was found to be 1.11.
For the compound `CC(C)c1ccc(N2Cc3ccc(N4CCCCC4)cc3C2=O)cc1` [ALB-116418], the maximal fold induction under setting [2] came to 1.15.
For the compound `CCN(CC)c1ccc2c(c1)C(=O)N(c1ccc(C(C)C)cc1)C2` [ALB-116639], the EC50 under setting [1] amounted to 121 nM. In addition, under setting [2], the maximal fold induction was determined as 1.19.
Turning to `CC(C)c1ccc(N2Cc3ccc(CN(C)C)cc3C2=O)cc1` [ALB-116934], the maximal fold induction under setting [2] worked out at 1.05.
For the compound `O=C1c2cc3c(cc2CN1c1ccc(C2CC2)cc1)OCCO3` [ALB-117043], the midpoint of the response under setting [1], the EC50, lay at 68 nM. In addition, the maximal fold induction under setting [3] stood at 1.57.
Under setting [1], `CCCC(C)c1ccc(N2Cc3ccccc3C2=O)cc1` (stereo not shown) [ALB-117045] yielded a 50% effective concentration (EC50) of 70 nM. In addition, the maximal fold induction under setting [2] stood at 1.25.
`CC(=O)N(C)c1ccc2c(c1)C(=O)N(c1ccc(C(C)C)cc1)C2` [ALB-117047] yielded a concentration giving a half-maximal response (EC50) under setting [1] of 269 nM. Besides, the maximal fold induction under setting [3] was determined as 1.39.
Take `COc1ccc2c(c1)CN(c1ccc(C(C)C)cc1)C2=O` [ALB-117453]: a half-maximal response under setting [1] (EC50) required 180 nM. Moreover, under setting [2], the maximal fold induction was determined as 1.28.
On to `CC(C#N)c1ccc(N2Cc3cc4c(cc3C2=O)OCCO4)cc1` (stereo not shown) [ALB-117571], for which, under setting [1], the midpoint of the response, the EC50, lay at 401 nM. In addition, the maximal fold induction under setting [3] worked out at 1.3.
Under setting [1], `CC(C)c1ccc(N2Cc3cccc(N)c3C2=O)cc1` [ALB-117574] gave an EC50 of 163 nM. Besides, under setting [2], the maximal fold induction was found to be 1.73.
In the same order, the values of `COc1cc2c(cc1OC)C(=O)N(c1ccc(C(C)C)cc1)C2` [ALB-117672] are 319 nM and 1.47.
For `CC(C)c1ccc(N2Cc3cc(N)ccc3C2=O)cc1` [ALB-117747] the same measures were 34 nM and 1.49.
In the same order, the values of `COc1cccc2c1C(=O)N(c1ccc(C(C)C)cc1)C2` [ALB-117748] are 166 nM and 1.34.
In the case of `CC(C)c1ccc(N2Cc3ccc4c(c3C2=O)OCO4)cc1` [ALB-117751], the EC50 under setting [1] turned out to be 27 nM. For the same compound, the maximal fold induction under setting [3] is 1.34.
Turning to `CC(C)c1ccc(N2Cc3cc(N(C)C)ccc3C2=O)cc1` [ALB-117752], the EC50 under setting [1] came to 42 nM. Further, under setting [2], the maximal fold induction was 1.38.
Consider `CC(C)c1ccc(N2Cc3cccc(I)c3C2=O)cc1` [ALB-117753], for which the EC50 under setting [1] was 183 nM. For the same compound, under setting [2], the maximal fold induction came out at 1.6.
Regarding `COc1cc2c(c(OC)c1Br)C(=O)N(c1ccc(C(C)C)cc1)C2` [ALB-117901], the maximal fold induction under setting [2] stood at 1.07.
Consider `CC(C)c1ccc(N2Cc3ccc(O)c(O)c3C2=O)cc1` [ALB-117903], for which, under setting [3], the maximal fold induction was 1.07.
For `CC(C)c1ccc(N2Cc3cccc(N(C)C)c3C2=O)cc1` [ALB-117904], the 50% effective concentration (EC50) under setting [1] was 4370 nM. Also, the maximal fold induction under setting [2] is 1.46.
For `CNc1cccc2c1C(=O)N(c1ccc(C(C)C)cc1)C2` [ALB-117905] the same measures were 414 nM and 1.55.
In the same order, the values of `COc1cc2c(c(OC)c1)C(=O)N(c1ccc(C(C)C)cc1)C2` [ALB-118034] are 447 nM and 1.3.
In the case of `COc1cc2c(cc1O)CN(c1ccc(C(C)C)cc1)C2=O` [ALB-118035], the maximal fold induction under setting [3] was found to be 1.13.
The compound `COc1ccc2c(c1OC)C(=O)N(c1ccc(C(C)C)cc1)C2` [ALB-118036] displayed an EC50 under setting [1] of 2670 nM. The maximal fold induction under setting [2] came to 1.29.
For `CC(C)c1ccc(N2Cc3ccc(-c4ccccc4)cc3C2=O)cc1` [ALB-118037] the same measures were 937 nM and 1.34.
As for `COc1ccc(-c2ccc3c(c2)C(=O)N(c2ccc(C(C)C)cc2)C3)cc1` [ALB-118038], under setting [2], the maximal fold induction was determined as 1.08.
The compound `CC(=O)Nc1ccc2c(c1)C(=O)N(c1ccc(C(C)C)cc1)C2` [ALB-118157] gave an EC50 under setting [1] of 203 nM. Also, the maximal fold induction under setting [3] came to 1.51.
In the same order, the values of `CC(C)c1ccc(N2Cc3cccc(O)c3C2=O)cc1` [ALB-118158] are 733 nM and 1.54.
In the same order, the values of `CC(C)c1ccc(N2Cc3cc(OC(F)F)ccc3C2=O)cc1` [ALB-118159] are 2090 nM and 1.32.
In the same order, the values of `CC(C)c1ccc(N2Cc3ccc4c(c3C2=O)OCCO4)cc1` [ALB-118160] are 46 nM and 1.43.
Turning to `CCOc1ccc2c(c1)CN(c1ccc(C(C)C)cc1)C2=O` [ALB-118276], under setting [2], the maximal fold induction was found to be 1.05.
As for `CC(C)c1ccc(N2Cc3cc(O)ccc3C2=O)cc1` [ALB-118277], the EC50 under setting [1] stood at 27 nM. The maximal fold induction under setting [3] was 1.15.
For `CCOc1cccc2c1C(=O)N(c1ccc(C(C)C)cc1)C2` [ALB-118278], the response under setting [1] was half-maximal at 1380 nM (EC50). In addition, the maximal fold induction under setting [2] turned out to be 1.5.
Regarding `CC(C)c1ccc(N2Cc3cccc(OC(F)F)c3C2=O)cc1` [ALB-118279], the 50% effective concentration (EC50) under setting [1] turned out to be 220 nM. For the same compound, under setting [3], the maximal fold induction came to 1.55.
The compound `COc1cc2c(cc1F)CN(c1ccc(C(C)C)cc1)C2=O` [ALB-118413] gave an EC50 under setting [1] of 119 nM. Further, the maximal fold induction under setting [2] stood at 1.39.
For `CCNC(=O)Nc1ccc2c(c1)C(=O)N(c1ccc(C(C)C)cc1)C2` [ALB-118414], the EC50 under setting [1] was found to be 3530 nM. Moreover, under setting [3], the maximal fold induction came out at 1.35.
For `CCCNC(=O)Nc1ccc2c(c1)C(=O)N(c1ccc(C(C)C)cc1)C2` [ALB-118415] the same measures were 13200 nM and 1.4.
Turning to `CC(C)c1ccc(N2Cc3ccc(NC(=O)Nc4ccccc4)cc3C2=O)cc1` [ALB-118416], the maximal fold induction under setting [3] is 1.17.
Under setting [1], `CNC(=O)Nc1ccc2c(c1)C(=O)N(c1ccc(C(C)C)cc1)C2` [ALB-118558] showed an EC50 of 865 nM. For the same compound, the maximal fold induction under setting [3] stood at 1.58.
With `CC(C)NC(=O)Nc1ccc2c(c1)C(=O)N(c1ccc(C(C)C)cc1)C2` [ALB-118559], the maximal fold induction under setting [3] amounted to 1.1.
